Where two headings read alike, the source gives them in different places.
How the values were obtained:
HL60 cells = experiment: Intracellular ROS accumulation, DCFH-DA staining, HL60 cells; assay type: cell-based; details: 3 h; for increase of ROS level: proliferating HL60 cells; for fold change of ROS: quiescent HL60 cells
Experimental: HL60 cells were cultured in RPMI 1640 supplemented (i) with or (ii) without 10% fetal bovine serum to obtain proliferating and quiescent leukemia cells respectively. Serum-deprived quiescent leukemic cells and proliferating leukemic cells were then cultured in media containing 0.5% FBS, and treated with 1 μM and 2.5 μM fenretinide, and also with chemotherapeutics as controls, 20 μM idarubicin (IDA) and 5 μM cytarabine (Ara-C).
The intracellular generation of reactive oxygen species (ROS) was measured using of the oxidation-sensitive fluorescent dye 2,7-dichlorofluorescin diacetate (DCFH-DA) (Molecular Probes). After 3 h exposure of fenretinide, 2×10^5 cells were harvested and washed once with PBS, then loaded with 1 ml PBS containing 10 μM of DCFH-DA. The cells were then incubated at 37° C. for 30 min and the fluorescence intensity was measured at 530 nm.
To examine the effects of fenretinide on proliferating and quiescent leukemia cells, HL60 cells were chosen as serum deprived quiescent leukemic cell model obtained when incubated in RPMI 1640 without serum for 48 h, with G0/G1 phase cells (being in quiescent state) accounting up to 59.9%. Serum-deprived quiescent leukemic cells and proliferating leukemic cells were then cultured in media containing 0.5% FBS, and treated with 1 μM and 2.5 μM fenretinide, and also with chemotherapeutics as controls, 20 μM idarubicin (IDA) and 5 μM cytarabine (Ara-C). […] Fenretinide induces intracellular production of ROS, lowers mitochondrial transmembrane potential (MTP), and eventually leads to apoptosis in a variety of malignancies. We measured MTP induced by fenretinide in proliferating and quiescent HL60 cells, as examined through rhodamine 123 and propidium iodide staining and followed by flow cytometry analysis. […] We further measured intracellular ROS abundance induced by fenretinide. […] After incubation with 1 μM and 2.5 μM fenretinide for 3 h, the ROS level of proliferating cells increased by 1.77 and 2.6 fold, respectively.

CML CD34+ cells = experiment: Colony forming assay in primary CML CD34+ cells; assay type: cell-based, human; details: 14 days; for inhibition at 2 µM / inhibition at 4 µM: Homo sapiens, 336 h; for inhibition at 2 µM: 2 μM fenretinide; for inhibition at 4 µM: 4 μM fenretinide
Source text: Fresh bone marrow (BM) cells were obtained from 38 patients with CML and 5 non-leukemic donors, 25 AML, 17 ALL, and 8 normal specimens with informed consent according to the Declaration of Helsinki. Approval was obtained from Institutional Review Board at the School of Medicine in Shanghai Jiao Tong University. BM mononuclear cells were isolated by Ficoll density gradient centrifugation (Shanghai Second Reagent Factory, Shanghai, China). CD34^+ Cell were selected using EasySep® Human CD34 Positive Selection kit (Stem Cell Technologies, Vancouver, BC, Canada) according to the manufacturer's instructions. […] The CD34^+ cells were cultured in a serum-free medium (StemPro 34; Gibco BRL, Gaithersburg, Md.) supplemented with growth factors (PeproTech, London, United Kingdom) (20). The growth factors consisted of GM-CSF (200 pg/mL), G-CSF (1 ng/mL); SCF (200 pg/mL); LIF (50 pg/mL), MIP-1α (200 pg/mL) and IL-6 (1 ng/mL).
A quantity of 1000 CD34^+ cells were plated in semisolid methylcellulose-based media (Methocult H4434: Stem Cell Technologies, Vancouver, BC, Canada). After incubation at 37° C. in a fully humidified atmosphere of 5% CO2 for 14 days, granulocyte macrophage-colony-forming units (CFU-GM), erythroid burst-forming units (BFU-E), granulocyte, erythrocyte and monocyte, megakaryocyte-colony-forming units (CUF-GEMM) were counted. Only clusters with >50 cells were counted as a colony.
We further performed study to examine the effects of fenretinide on colony forming in primary CML cells derived from 38 bone marrow specimens of CML patients (TABLE 1). First, CML CD34^+ Cells were isolated using EasySep® Human CD34 Positive Selection kit (Stem Cell Technologies, Vancouver, BC, Canada). Upon treated with 2 μM and 4 μM fenretinide, colony forming assays were performed respectively on granulocyte macrophage-colony-forming units (CFU-GM), erythroid burst-forming units (BFU-E), granulocyte, erythrocyte and monocyte, megakaryocyte-colony-forming units (CFU-GEMM).

K562 = experiment: Apoptosis in CML cell line K562; assay type: cell-based; details: 4 μM fenretinide, 0.25 μM imatinib, 0.1 μM MG132, alone or combined
Experimental: 2×10^5 cultured cells were used for evaluating apoptosis using an ApoAlert Annexin V-FITC Apoptosis Kit (BD Biosciences). Cells were washed once by PBS, resuspended in 200 μl Annexin-V binding buffer, and then stained with Annexin V-FITC 5 μl, PI 10 μl for 15 min at room temperature in the dark. Cells were subsequently analyzed by flow cytometry.

MKN45 = experiment: Apoptosis in gastric tumor cell line MKN45 (Rh123/PI, FACS); assay type: cell-based; details: MKN45, 48 hours; 4 μM fenretinide, 5 μM Tet, alone or co-treatment
Experimental: Loss of MTP was evaluated through rhodamine 123 (Rh123) and propidium iodide (PI) staining. 2×10^5 cells were washed by PBS and incubated with 1 μg/ml Rh123 at 37° C. for 30 min. After washed by PBS, 10 μl PI was added to cells for 15 min at room temperature in the dark. Fluorescence emission at 530 nm (representing R123 retention as a function of MTP) was measured with flow cytometry.
Fenretinide induces intracellular ROS and ER stress to activate series of molecular events including apoptotic pathway and such anti-apoptotic pathways as NF-κB cascade. NF-κB can mediate the progression of inflammation-related cancer. […] Unlike fenretinide, Tet is the well-known anti-cancer and anti-inflammation drugs via inhibiting the activity of NF-κB. For example, Tet, as the main effective component of Stephenia tetrandra S Moore, has bioactivities in reversing MDR (multidrug resistance), blocking calcium ion channel and so on. […] FIGS. 19A and 19B show synergistic induction of apoptosis by fenretinide and Tet, as evaluated by Rh123/PI double stain using FACS. […] Through annexin-V/PI double staining, synergistic apoptosis profiles of fenretinide/tetrandrine co-treated MKN45 and SGC7901 cells were also observed (see FIGS. 19C and 19D).

[1] = read-out: inhibition of BFU-E number
[2] = CFU-GM, read-out: inhibition of CFU-GM number

CC1=C(/C=C/C(C)=C/C=C/C(C)=C/C(=O)Nc2ccc(O)cc2)C(C)(C)CCC1 [fenretinide, N-(4-hydroxyphenyl)retinamide]
increase of ROS level (HL60 cells; 1 μM fenretinide): 1.77 fold
increase of ROS level (HL60 cells; 2.5 μM fenretinide): 2.6 fold
fold change of ROS (HL60 cells; 1 μM fenretinide): 3.83 fold
fold change of ROS (HL60 cells; 2.5 μM fenretinide): 4.3 fold
inhibition at 2 µM (CML CD34+ cells; [1]): 24%
inhibition at 4 µM (CML CD34+ cells; [1]): 66%
inhibition at 2 µM (CML CD34+ cells; [2]): 19%
inhibition at 4 µM (CML CD34+ cells; [2]): 36 ± 9%
GFU-GEMM formed by the more primitive progenitor cells (CML CD34+ cells; fenretinide 2 μM and 4 μM): could not be detected
apoptosis rate (K562): 2.46%
apoptosis (MKN45): 6.2%

From US8088822B2, “Use of fenretinide or bioactive derivatives thereof and pharmaceutical compositions comprising the same” (priority 2008, dated 2012)
